Key:
[1] = tested on: angiogenesis (tube formation); experiment: Assay by angiogenesis kit (KZ-1000), tube formation; type: cell-based
Description: The anti-angiogenic effect obtained by combined use of 20 μM of α-SQMG C18:0 administration and 4 Gy of ^60Co γ-ray irradiation was investigated using an angiogenesis kit (“angiogenesis kit KZ-1000” of Kurabo Industries Ltd.).
A drug named Suramin is the known substance as a drug suppressing angiogenesis, and it is known that its action is to inhibit a growth factor receptor of a vascular endothelial cell. In the present Example, Suramin was used as a positive control at 50 μM.
As described above, the “theoretical additive point of combined use” is calculated by multiplication, and the theoretical value is compared with an actually measured value.

[2] = tested on: Bovine aortic endothelial cells (BAEC); experiment: Colony assay on vascular endothelial cells with 60Co γ-ray irradiation; type: cell-based; design: key to actually measured SF value of combined use group / actually measured SF value of combined use: SF = colonies/seeded cells×(PE/100); PE = control colony formation rate; settings: for SF (cell surviving fraction), administration alone / synergistic effect of combined use with radiation on suppression of proliferation of vascular endothelial cells: 10 μM; for SF (cell surviving fraction), administration alone: 24 hours, no irradiation; for synergistic effect of combined use with radiation on suppression of proliferation of vascular endothelial cells: 4 Gy and/or 6 Gy
Description: Bovine aortic endothelial cells (BAEC) were appropriately seeded on a petri dish, and adhesion of cells was confirmed after 2 to 3 hours. In a group of α-SQMG C18:0 administration alone and a combined use group, the cells were treated with 10 μM of α-SQMG C18:0. After 24 hours, a medium was exchanged in all test groups, and 4 Gy of ^60Co γ-ray was irradiated in a group of irradiation alone and a combined use group. After the cells were cultured in a CO2 incubator at 37° C. for 10 to 12 days, formed colonies were fixed with formalin, and stained with a crystal violet staining solution. On each plate, the number of colonies consisting of about 50 or more cells was counted, and cell surviving fraction (SF) was obtained according to the following equation.
SF (cell surviving fraction)=number of colonies/number of seeded cells×(PE/100)
Herein, PE (plating efficiency) represents a colony formation rate (%) on a plate of a control.
An experiment was performed three times, and an average of them was calculated.
The same experiment as that of Experimental Example 2-1 was performed except that a radiation dose 6 Gy was irradiated in place of 4 Gy used in Experimental Example 2-1. […]

[3] = 4 Gy 60Co γ-ray + α-SQMG C18:0 20 μM or Suramin 50 μM

Cc1ccc(C(=O)Nc2ccc(S(=O)(=O)O)c3cc(S(=O)(=O)O)cc(S(=O)(=O)O)c23)cc1NC(=O)c1cccc(NC(=O)Nc2cccc(C(=O)Nc3cc(C(=O)Nc4ccc(S(=O)(=O)O)c5cc(S(=O)(=O)O)cc(S(=O)(=O)O)c45)ccc3C)c2)c1 [Suramin, reference compound]
tube formation rate, Actually measured value, combined use [1, 3]: 0.232 | tube formation rate, Theoretical value (theoretical additive point of combined use) [1, 3]: 0.219 | tube formation rate, use alone ([1]; α-SQMG C18:0 20 μM, Suramin 50 μM, no irradiation): 0.3386

CCCCCCCCCCCCCCCCCC(=O)OCC(CO[C@H]1O[C@H](CS(=O)(=O)[O-])[C@@H](O)[C@H](O)[C@H]1O)OC(=O)CCCCCCCCCCCCCCCCC.[Na+] (stereo partly drawn) [α-SQDG C18:0, 3-O-(6-deoxy-6-sulfo-α-D-glucopyranosyl)-1,2-di-O-stearoyl-glycerol sodium salt]
actually measured SF value of combined use group ([2]; 10 μM + 4 Gy 60Co γ-ray): 0.0882 | theoretical additive point of combined use (SF) ([2]; 10 μM + 4 Gy 60Co γ-ray): 0.1765 | SF (cell surviving fraction), administration alone [2]: 0.9216

CCCCCCCCCCCCCC(=O)OCC(O)CO[C@H]1O[C@H](CS(=O)(=O)[O-])[C@@H](O)[C@H](O)[C@H]1O.[Na+] (stereo partly drawn) [α-SQMG C14:0, 3-O-(6-deoxy-6-sulfo-α-D-glucopyranosyl)-1-O-myristoyl-glycerol sodium salt]
actually measured SF value of combined use group ([2]; 10 μM + 6 Gy 60Co γ-ray): 0.0109 | theoretical additive point of combined use (SF) ([2]; 10 μM + 6 Gy 60Co γ-ray): 0.0715 | SF (cell surviving fraction), administration alone [2]: 1.0605 | synergistic effect of combined use with radiation on suppression of proliferation of vascular endothelial cells [2]: considerably great synergistic effect

CCCCCCCCCCCCCCCC(=O)OCC(O)CO[C@H]1O[C@H](CS(=O)(=O)[O-])[C@@H](O)[C@H](O)[C@H]1O.[Na+] (stereo partly drawn) [α-SQMG C16:0, 3-O-(6-deoxy-6-sulfo-α-D-glucopyranosyl)-1-O-palmitoyl-glycerol sodium salt]
actually measured SF value of combined use group ([2]; 10 μM + 6 Gy 60Co γ-ray): 0.0233 | theoretical additive point of combined use (SF) ([2]; 10 μM + 6 Gy 60Co γ-ray): 0.0644 | SF (cell surviving fraction), administration alone [2]: 0.9553 | synergistic effect of combined use with radiation on suppression of proliferation of vascular endothelial cells [2]: considerably great synergistic effect

CCCCCCCC/C=C\CCCCCCCC(=O)OCC(O)CO[C@H]1O[C@H](CS(=O)(=O)[O-])[C@@H](O)[C@H](O)[C@H]1O.[Na+] (stereo partly drawn) [α-SQMG C18:1, 3-O-(6-deoxy-6-sulfo-α-D-glucopyranosyl)-1-O-oleoyl-glycerol sodium salt]
actually measured SF value of combined use group ([2]; 10 μM + 4 Gy 60Co γ-ray): 0.0843 | theoretical additive point of combined use (SF) ([2]; 10 μM + 4 Gy 60Co γ-ray): 0.1990 | SF (cell surviving fraction), administration alone [2]: 1.0392

CCCCCCCCCCCCCCCCCC(=O)OCC(O)CO[C@H]1O[C@H](CS(=O)(=O)[O-])[C@@H](O)[C@H](O)[C@@H]1O.[Na+] (stereo partly drawn) [α-SRMG C18:0, 3-O-(6-deoxy-6-sulfo-α-D-mannopyranosyl)-1-O-stearoyl-glycerol sodium salt]
actually measured SF value of combined use group ([2]; 10 μM + 4 Gy 60Co γ-ray): 0.0784 | theoretical additive point of combined use (SF) ([2]; 10 μM + 4 Gy 60Co γ-ray): 0.1677 | SF (cell surviving fraction), administration alone [2]: 0.8758

CCCCCCCCCCCCCCCCCC(=O)OCC(CO[C@@H]1O[C@H](CS(=O)(=O)[O-])[C@@H](O)[C@H](O)[C@H]1O)OC(=O)CCCCCCCCCCCCCCCCC.[Na+] (stereo partly drawn) [β-SQDG C18:0, 3-O-(6-deoxy-6-sulfo-β-D-glucopyranosyl)-1,2-di-O-stearoyl-glycerol sodium salt]
actually measured SF value of combined use group ([2]; 10 μM + 4 Gy 60Co γ-ray): 0.0908 | theoretical additive point of combined use (SF) ([2]; 10 μM + 4 Gy 60Co γ-ray): 0.1377 | SF (cell surviving fraction), administration alone [2]: 0.7190

CCCCCCCCCCCCCCCCCC(=O)OCC(O)CO[C@@H]1O[C@H](CS(=O)(=O)[O-])[C@@H](O)[C@H](O)[C@H]1O.[Na+] (stereo partly drawn) [β-SQMG C18:0, 3-O-(6-deoxy-6-sulfo-β-D-glucopyranosyl)-1-O-stearoyl-glycerol sodium salt]
actually measured SF value of combined use group ([2]; 10 μM + 4 Gy 60Co γ-ray): 0.0922 | theoretical additive point of combined use (SF) ([2]; 10 μM + 4 Gy 60Co γ-ray): 0.1640 | SF (cell surviving fraction), administration alone [2]: 0.8562

— patent US20090253644A1, “Radiosensitizer” (TOYO SUISAN KAISHA, LTD., priority 2004, published 2009)
